From paper PMC4411097, “Pachymic Acid Inhibits Growth and Induces Apoptosis of Pancreatic Cancer In Vitro and In Vivo by Targeting ER Stress” (PLoS ONE, 2015)

Experiments:
[1] = system: ATF4 and CHOP in MIA PaCa-2 tumor tissues; assay: Western blot of tumor tissues; format: in vivo, female nude mice; details: 25 mg kg^-1, vs controls
Protocol: (§1) PANC-1, MIA PaCa-2 cells were treated with PA (0–30 μM) for 10 min, 30 min or 24 h, respectively. Whole protein extracts isolated from cells and tumor tissues were prepared and western blot analysis with anti-cleaved PARP, anti-XBP-1s, anti-ATF6, anti-ATF4, anti-Hsp70, anti-CHOP, anti-phospho-eIF2α or anti-eIF2α antibodies were performed as previously described. Western blots were quantified with HP-Scanjet 550c and analyzed by UN-SCAN-IT software (Silk Scientific, Orem, UT). Three independent experiments were done for all the immunoblot studies and quantitative data composed of all the experiments with statistical analysis were added below the representative blot image.

[2] = system: HSPA6 and CHOP in MIA PaCa-2 tumor tissues; assay: Quantitative RT-PCR of tumor tissues; format: in vivo, female nude mice; details: 25 mg kg^-1, vs controls
Protocol: The quantitative real-time polymerase chain reaction (qRT-PCR) was performed using ABI PRISM 7900HT Fast Real-Time PCR System (Applied Biosystems, Foster City, CA) according to the manufacturer's instructions. Total RNA was isolated from tumors with RNeasy Mini Kit (Qiagen, Valencia, CA). RNA quality was monitored and quantified using the Qubit 2.0 Fluorometer (Invitrogen, Carlsbad, CA). The RNA samples were reverse transcribed into cDNA using High Capacity cDNA Reverse Transcription Kit (Applied Biosystems, Foster City, CA). The cDNA (100 ng per sample) was subjected to qPCR analysis in triplicate. Analysis of the relative quantity gene expression (RQ) of HSPA6 and CHOP was normalized by ACTB expression and was performed using the 2^-ΔΔCt method.

[3] = Toxicology studies in vivo; parameters: species or system female nude mice; details: for ALP: mean ± SD (n = 10–13), control 60 ± 19; for Albumin: control 1.5 ± 0.2; for AST: control 625 ± 367
Protocol: Toxicity of PA was evaluated in the 6 weeks old female nude mice (Harlan, Indianapolis, IN). The mice were acclimatized for 1 week and treated with PA (0, 25 or 50 mg kg^-1 of body weight, n = 15 per group) by i.p. 3 times per week for additional 5 weeks. The body weight was evaluated 3 times per week. At the end of the experiment, animals were euthanized by CO2 inhalation. Blood was collected and a gross pathology examination performed. Liver, spleen, kidney, lung and heart were harvested, fixed in 10% neutral-buffered formalin at 4°C for 24 h followed tissue processing overnight and then embedded in paraffin. Five-micrometer sections were stained with H&E. The levels of alkaline phosphatase (ALP), alanine aminotransferase (ALT), aspartate aminotransferase (AST), albumin and total protein were determined at the IU Health Pathology Laboratory (Indianapolis, IN).

[4] = system: MIA PaCa-2; parameters: method as in PMID 23588713; details: MIA PaCa-2, 24 h; read-out: IC50-24 h, inhibition of proliferation; cited from earlier work
[5] = system: normal pancreatic duct epithelial cells HPDE-6; parameters: method as in PMID 23588713; details: cited from earlier work
[6] = parameters: method as in PMID 22213174; details: rats fed by P. cocos; cited from earlier work
[7] = system: MIA PaCa-2 tumor xenograft; assay: Apoptosis measurement in tumor xenograft (apoptotic bodies, H&E); format: in vivo, female nude mice
Protocol: All formalin-fixed tumors were embedded in paraffin within 48 h and five-micrometer sections were stained with hematoxylin and eosin (H&E). The slides were viewed under a Leica microscope (Leica Instruments, Melville, NY) and apoptosis in the viable tumor cell area was quantified by counting apoptotic bodies in four 20 x fields of view for n = 6–12 tumors per group by 2 independent observers.

[8] = system: MIA PaCa-2 cells; assay: Apoptosis, Cell Death Detection ELISA (cytoplasmic histone-associated DNA fragments); format: cell-based, human; details: MIA PaCa-2, PA 0–30 μM, 24 h, relative to vehicle-treated cells (=1)
Protocol: (§2) Apoptosis induction in PA-treated cells was assessed by quantitation of cytoplasmic histone-associated DNA fragments and western blotting for PARP cleavage (c-PARP). The Cell Death Detection ELISA^PLUS Kit (Roche, Indianapolis, IN) was used to detect the amount of cytoplasmic histone-associated DNA fragments according to the manufacturer’s instructions and expressed relative to vehicle-treated cells (set equal to 1).

[9] = system: PANC-1 cells; assay: as above; format: cell-based, human; details: PANC-1, PA 0–30 μM, 24 h, relative to vehicle-treated cells (=1)
Protocol: as §2

[10] = system: PARP cleavage (c-PARP) in PANC-1 cells; assay: Western blot for PARP cleavage (c-PARP); format: cell-based, human; details: PANC-1, PA 0–30 μM, 24 h
Protocol: as §2, §1

[11] = system: PARP cleavage (c-PARP) in MIA PaCa-2 cells; assay: Western blot for PARP cleavage (c-PARP); format: cell-based, human; details: MIA PaCa-2, PA 0–30 μM, 24 h
Protocol: as §2, §1

[12] = system: PANC-1; parameters: method as in PMID 23588713; details: PANC-1, 24 h; read-out: IC50-24 h, inhibition of proliferation; cited from earlier work

With `C=C(CC[C@@H](C(=O)O)[C@H]1[C@H](O)C[C@@]2(C)C3=C(CC[C@]12C)[C@@]1(C)CC[C@H](OC(C)=O)C(C)(C)[C@@H]1CC3)C(C)C` [PA, Pachymic acid] the “Expression of ATF4 and CHOP proteins in tumors” value [1] was “significant increase”, the “Significant increase of HSPA6 and CHOP/GADD153 mRNA in tumors” value [2] was “not observed” and the “Liver enzyme profiles (ALP, ALT, AST, albumin, total protein)” value ([3]; 25 mg kg^-1) was “not markedly altered”. The “Organ pathology by H&E (liver, kidney, spleen, lung, heart)” value ([3]; 25 mg kg^-1) was “did not demonstrate any abnormalities”, the ALP ([3]; 25 mg kg^-1, serum) was 62 ± 9 IU L^-1 and the Albumin ([3]; 25 mg kg^-1, serum, mean ± SD) was 1.6 ± 0.1 g/dL. The T Protein ([3]; 25 mg kg^-1, serum, mean ± SD, control 4.1 ± 0.5) was 4.5 ± 0.2 g/dL, the ALT ([3]; 25 mg kg^-1, serum, mean ± SD, control 123 ± 88) was 194 ± 193 IU L^-1 and the AST ([3]; 25 mg kg^-1, serum, mean ± SD) was 531 ± 296 IU L^-1. For the same molecule, the Clinical signs ([3]; 50 mg kg^-1) was “several signs of discomfort and impaired movement”, the “Organ pathology by H&E (liver, kidney, spleen, lung, heart)” value ([3]; 50 mg kg^-1) was “obvious pathological changes in liver, kidney and spleen tissues” and the ALP ([3]; 50 mg kg^-1, serum) was 59 ± 11 IU L^-1. The Albumin ([3]; 50 mg kg^-1, serum, mean ± SD) was 1.6 ± 0.1 g/dL, the AST ([3]; 50 mg kg^-1, serum, mean ± SD) was 1431 ± 997 IU L^-1 and the “Body weight, treatment groups vs control” value ([3]; 25 and 50 mg kg^-1 i.p. 3 times per week, 5 weeks) was “no significant differences”. For the same molecule, the IC50 [4] was 26.6 µM, the “Effect on growth of normal pancreatic duct epithelial cells” value [5] was “only slightly affects” and the “Presence in urine and plasma” value [6] was “detectable”. The “Increase of apoptotic bodies in tumors vs control” value ([7]; 25 mg kg^-1) was “approximately 59%”, the “Increase of apoptotic bodies in tumors vs control” value ([7]; 50 mg kg^-1) was ~2 fold and the “PA-induced apoptosis vs control” value [8] was ~8 fold. The “PA-induced apoptosis vs control” value [9] was ~19 fold, the “Increase in expression of PARP cleavage vs vehicle-treated control” value [10] was “approximately 3 fold” and the “Increase in expression of PARP cleavage vs vehicle-treated control” value [11] was ~4 fold. For the same molecule, the IC50 [12] was 23.5 µM.
